Columns and labels:
[1] = tested on: Aßo/PrP^C interaction in stably PrP^C-transfected CV1 cells; format: cell-based, rat
[2] = tested on: APP/PS1 transgenic Alzheimer's model mice; test: Morris water maze in APP/PS1 mice; format: in vivo, mouse; details: fresh ceftazidime (as Fortaz) 100 mg/kg IP BID
Description: For Morris water maze, mice were randomly assigned to treatment groups and the experimenter was unaware of both genotype and treatment group. Groups were balanced for age, sex, and weight. Mice used were 12-14 months of age at experiment initiation. During treatment, the experimenter was blinded to genotype. For drug treated mice, Poly(4-styrenesulfonic acid co-maleic acid) was administered by twice daily oral gavage of 5.0 mg and 15.0 mg Poly(4-styrenesulfonic acid co-maleic acid) per kg body weight in a vehicle of 0.5% w/v hydroxypropyl methylcellulose and 0.1% w/v polysorbate 80 to APP/PS1 and WT mice, respectively. Vehicle treated animals were gavaged twice daily with vehicle. 500 mg ceftazidime as Fortaz was dissolved per manufacturer's instructions in 1.5 ml sterile milliQ H2O to obtain 333 mg/ml in sodium carbonate solution. Animals treated peripherally with fresh ceftazidime were injected directly after dissolution intraperitoneally with 100 mg ceftazidime per kg body weight in a vehicle of PBS. Animals treated centrally with aged ceftazidime were fitted with an intracerebroventricular cannula (Alzet brain infusion kit 0008663) and subcutaneous osmotic minipump (Alzet model 1004) loaded with aged ceftazidime diluted in PBS. All animals were treated for 4 weeks prior to the Morris water maze and throughout assessment. […]

Compound	Aßo/PrP^C interaction-inhibiting activity, aged drug [1]	Aßo/PrP^C interaction-inhibiting activity, fresh drug [1]	MWM latency to hidden platform, effect of treatment [2]
CO/N=C(\C(=O)N[C@@H]1C(=O)N2C(C(=O)O)=C(COC(C)=O)CS[C@H]12)c1csc(N)n1 [cefotaxime]	zero activity	zero activity	–
CC(C)(O/N=C(\C(=O)N[C@@H]1C(=O)N2C(C(=O)[O-])=C(C[n+]3ccccc3)CS[C@H]12)c1csc(N)n1)C(=O)O [ceftazidime]	exhibited activity	–	no detectable effect
CO/N=C(\C(=O)N[C@@H]1C(=O)N2C(C(=O)O)=C(CSc3nc(=O)c(=O)[nH]n3C)CS[C@H]12)c1csc(N)n1 [ceftriaxone]	zero activity	zero activity	–

Source: patent publication US12419905B2, “Methods and compositions for the treatment of amyloid-related disorders” (YALE UNIVERSITY, priority 2018, dated 2025)
